Assay results published in patent publication US20260285863A1, “COMPOUNDS CAPABLE OF MODULATING GPR65” (Pathios Therapeutics Limited, priority 2023, published 2026).

Target: T1, human recombinant GPR65 (Homo sapiens, UniProt Q8IYL9)
T1 construct: host or cells: 1321N1 human astrocytoma cells (1321N1-hrGPR65)
Assay: Human GPR65 cAMP HTRF antagonist assay
Assay type: cell-based
Conditions: 1321N1-hrGPR65 cells, assay pH 7.2, cAMP HTRF; read-out: hGPR65 IC50
Source text: The “Human GPR65 cyclic adenosine monophosphate (cAMP) Homogeneous Time Resolved Fluorescence (HTRF) antagonist assay”, or simply “cAMP assay”, as described in the accompanying examples, can be used to measure the potency of GPR65 modulators, which is expressed as the concentration of compound required to reduce the increase in cAMP concentration upon GPR65 activation by 50% (i.e. an IC50).
Human GPR65 Cyclic Adenosine Monophosphate (cAMP) Homogeneous Time Resolved Fluorescence (HTRF) Antagonist Assay Procedure
IC50data was obtained by the following procedure:
1321N1 human astrocytoma cells stably expressing human recombinant GPR65 (1321N1-hrGPR65 cells, EuroscreenFast) were cultured according to the vendor's instructions.
Compounds were tested for their ability to antagonise GPR65, through measuring the concentration of cytoplasmic cAMP following treatment of the cells at a pH of 7.2 to activate GPR65 signalling and addition of the compound to be tested. The extent to which the expected rise in cAMP concentration upon GPR65 activation was suppressed by the added compound is indicative of its potency. The assay was carried out according to EuroscreenFast assay Methodology as follows.
On the day of the assay, test compounds were added to 384-well, low volume, white microtiter plates by acoustic dispensing. KRH buffer (5 mM KCl, 1.25 mM MgSO4, 124 mM NaCl, 25 mM HEPES, 13.3 mM Glucose, 1.25 mM KH2PO4 and 1.45 mM CaCl2) was adjusted to pH 6.5, pH 7.6 and pH 8.4 by adding NaOH. 1321N1-hGPR65 cells were rapidly thawed and diluted in KRH, pH 7.6 prior to centrifugation at 300×g for 5 min and resuspension in assay buffer (KRH, pH 7.6, supplemented with 1 mM 3-isobutyl-1-methylxanthine (IBMX) and 200 μM ethylenediaminetetraacetic acid (EDTA)). Cells were added to assay plates at a density of 2,000 cells per well in a volume of […]. Assay plates were briefly centrifuged at 100×g and then incubated at room temperature for 30 min. Cells were stimulated by the addition of 5 μL KRH, pH 6.5, to achieve an assay pH of 7.2, while control wells received […] KRH, pH 8.4 to achieve an assay pH of 7.9. Assay plates were briefly centrifuged at 100×g and then incubated at room temperature for 30 min.
Accumulation of cAMP was detected by cAMP HTRF kit (Cisbio). d2-labeled cAMP and cryptate-labeled anti-cAMP antibody in Lysis and Detection Buffer (Cisbio) were added to assay plates, and the plates were incubated at room temperature for 1 h. HTRF measurements were performed using a Pherastar FSX instrument. Acceptor and donor emission signals were measured at 665 nm and 620 nm, respectively, and HTRF ratios were calculated as signal665 nm/signal620 nm×104. Data were normalised to high and low control values and fitted with 4-parameter logistic regression to determine hGPR65 IC50 values for the test compounds, which are shown in Table 1.

T1 sequence (Q8IYL9 whole entry): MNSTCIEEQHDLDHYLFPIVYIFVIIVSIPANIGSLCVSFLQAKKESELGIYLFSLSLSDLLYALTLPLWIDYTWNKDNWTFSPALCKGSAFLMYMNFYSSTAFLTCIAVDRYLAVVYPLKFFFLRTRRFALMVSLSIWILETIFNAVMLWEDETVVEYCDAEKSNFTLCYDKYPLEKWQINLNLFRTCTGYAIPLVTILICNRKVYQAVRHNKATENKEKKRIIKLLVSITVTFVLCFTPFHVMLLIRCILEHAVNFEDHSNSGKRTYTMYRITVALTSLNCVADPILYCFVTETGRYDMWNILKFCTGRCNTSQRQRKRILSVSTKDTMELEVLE

Structure (SMILES) | IC50 [nM]
COCCO[C@H]1C[C@@H](Oc2ccc(-c3cc(F)c(NC(=O)N4[C@H]5CC[C@@H]4c4c[nH]c(=O)cc4C5)cc3Cl)cn2)C1 [Compound 23, (6S,9R)-N-(5-chloro-2-fluoro-4-(6-((1s,3S)-3-(2-methoxyethoxy)cyclobutoxy)pyridin-3-yl)phenyl)-3-oxo-3,5,6,7,8,9-hexahydro-2H-6,9-epiminocyclohepta[c]pyridine-10-carboxamide] | < 500
Cc1cc(-c2cc(F)c(NC(=O)N3[C@H]4CC[C@@H]3c3c[nH]c(=O)cc3C4)cc2Cl)cc2nsnc12 [Compound 24, (6S,9R)-N-(5-chloro-2-fluoro-4-(7-methylbenzo[c][1,2,5]thiadiazol-5-yl)phenyl)-3-oxo-3,5,6,7,8,9-hexahydro-2H-6,9-epiminocyclohepta[c]pyridine-10-carboxamide] | < 500
CC(C)(C)OC(=O)N1CCC(Oc2ccc(-c3cc(F)c(NC(=O)N4[C@H]5CC[C@@H]4c4c[nH]c(=O)cc4C5)cc3Cl)cn2)C1 (stereo partly drawn) [Compound 25, tert-Butyl 3-((5-(2-chloro-5-fluoro-4-((6S,9R)-3-oxo-3,5,6,7,8,9-hexahydro-2H-6,9-epiminocyclohepta[c]pyridine-10-carboxamido)phenyl)pyridin-2-yl)oxy)pyrrolidine-1-carboxylate] | < 500
Cn1ccc2cc(-c3cc(F)c(NC(=O)N4[C@H]5CC[C@@H]4c4c[nH]c(=O)cc4C5)cc3Cl)ccc21 [Compound 26, (6S,9R)-N-(5-chloro-2-fluoro-4-(1-methyl-1H-indol-5-yl)phenyl)-3-oxo-3,5,6,7,8,9-hexahydro-2H-6,9-epiminocyclohepta[c]pyridine-10-carboxamide] | < 500
O=C(Nc1cc(Cl)c(-c2ccc(OC3CCN(CC(F)(F)F)C3)nc2)cc1F)N1[C@H]2CC[C@@H]1c1c[nH]c(=O)cc1C2 (stereo partly drawn) [Compound 27, (6S,9R)-N-(5-chloro-2-fluoro-4-(6-((1-(2,2,2-trifluoroethyl)pyrrolidin-3-yl)oxy)pyridin-3-yl)phenyl)-3-oxo-3,5,6,7,8,9-hexahydro-2H-6,9-epiminocyclohepta[c]pyridine-10-carboxamide] | < 500
O=C(Nc1cc(Cl)c(-c2ccc(OCC3CCC3)nc2)cc1F)N1[C@H]2CC[C@@H]1c1c[nH]c(=O)cc1C2 [Compound 28, (6S,9R)-N-(5-chloro-4-(6-(cyclobutylmethoxy)pyridin-3-yl)-2-fluorophenyl)-3-oxo-3,5,6,7,8,9-hexahydro-2H-6,9-epiminocyclohepta[c]pyridine-10-carboxamide] | < 500
CC(C)(C)OC(=O)N1CC(COc2ccc(-c3cc(F)c(NC(=O)N4[C@H]5CC[C@@H]4c4c[nH]c(=O)cc4C5)cc3Cl)cn2)C1 [Compound 29, tert-Butyl 3-(((5-(2-chloro-5-fluoro-4-((6S,9R)-3-oxo-3,5,6,7,8,9-hexahydro-2H-6,9-epiminocyclohepta[c]pyridine-10-carboxamido)phenyl)pyridin-2-yl)oxy)methyl)azetidine-1-carboxylate] | < 500
Cn1cc(-c2cc(F)c(NC(=O)N3[C@H]4CC[C@@H]3c3c[nH]c(=O)cc3C4)cc2Cl)ccc1=O [Compound 30, (6S,9R)-N-(5-chloro-2-fluoro-4-(1-methyl-6-oxo-1,6-dihydropyridin-3-yl)phenyl)-3-oxo-3,5,6,7,8,9-hexahydro-2H-6,9-epiminocyclohepta[c]pyridine-10-carboxamide] | 500 to 5000
CN(C(=O)C(F)(F)F)c1ccc(-c2cc(F)c(NC(=O)N3[C@H]4CC[C@@H]3c3c[nH]c(=O)cc3C4)cc2Cl)cn1 [Compound 31, (6S,9R)-N-(5-chloro-2-fluoro-4-(6-(2,2,2-trifluoro-N-methylacetamido)pyridin-3-yl)phenyl)-3-oxo-3,5,6,7,8,9-hexahydro-2H-6,9-epiminocyclohepta[c]pyridine-10-carboxamide] | 500 to 5000
